Substitutions are numbered along the chain they refer to.
Key:
Format in all cases: cell-based
Settings in all cases: 100 µM chanoclavine, read-out: Inhibition Percentage (%)
[1] = molecular target: T1, 5-HT3A receptor L156A mutant (Homo sapiens, UniProt P46098, L151A); assay: two-electrode voltage clamp, L156A mutant receptor in Xenopus oocytes
T1 construct: host or cells: Xenopus laevis oocytes injected with in vitro transcribed mRNA
T1 sequence (P46098 24-478 L151A): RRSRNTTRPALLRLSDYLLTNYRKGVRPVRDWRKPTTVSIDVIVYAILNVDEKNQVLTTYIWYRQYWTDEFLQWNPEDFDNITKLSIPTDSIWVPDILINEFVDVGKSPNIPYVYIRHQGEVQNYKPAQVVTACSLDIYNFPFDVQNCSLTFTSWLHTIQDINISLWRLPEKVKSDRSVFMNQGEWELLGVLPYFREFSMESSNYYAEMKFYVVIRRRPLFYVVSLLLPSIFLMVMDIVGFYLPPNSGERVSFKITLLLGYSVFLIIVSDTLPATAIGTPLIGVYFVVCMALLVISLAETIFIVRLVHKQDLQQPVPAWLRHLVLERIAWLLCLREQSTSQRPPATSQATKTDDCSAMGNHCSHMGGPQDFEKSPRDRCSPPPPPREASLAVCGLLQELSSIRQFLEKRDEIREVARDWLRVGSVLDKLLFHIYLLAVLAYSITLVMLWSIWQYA
Procedure: (§1) The site-directed mutation of one or two amino acids was performed using sense and antisense primers and Pfu polymerase (QuickChange Site-Directed Mutagenesis Kit; Agilent, Santa Clara, CA, USA) and amplified by polymerase chain reaction (PCR) to increase the target domain. After removing the existing methylated cDNA using Dpn Ⅰ, the PCR products were transformed into Escherichia coli strain DH5α. The cDNA of the 5-HT3A receptor was linearized by Xho Ⅰ at the end of the multi-cloning site, followed by transcription using T7 polymerase and a transcription kit (mMESSAGE mMACHINE T7 Transcription Kit; Thermo Fisher Scientific, Waltham, MA, USA). […]
(§2) To isolate oocytes, female Xenopus laevis were put into a container filled with ice and left for about one hour. […] When the Xenopus oocytes were ready for injection, 50 ng of mRNA was injected with a nanoliter injector (Drummond Scientific, Vernon Hills, IL, USA). […]
(§3) The oocytes in which mRNA was expressed during the incubation period allowed for the estimation of channel or receptor properties for observing drug and ligand potential interactions using a two-electrode voltage clamp (OC-725C; Warner Instruments, Hamden, CT, USA) and Digidata (1322A; Molecular Devices, Sunnyvale, CA, USA). […] The voltage and current electrodes were filled with 3 M KCl (0.3–0.7 MΩ) and analyzed at a −80 mV holding potential. […]

[2] = molecular target: T2, 5-HT3A receptor V133A mutant (Homo sapiens, UniProt P46098, V128A); assay: two-electrode voltage clamp, V133A mutant receptor in Xenopus oocytes
T2 construct: host or cells: Xenopus laevis oocytes injected with in vitro transcribed mRNA
T2 sequence (P46098 24-478 V128A): T1 sequence (P46098 24-478 L151A) with V105A, A128L
Procedure: as §1, §2, §3

[3] = molecular target: T3, 5-HT3A receptor R92A mutant (Homo sapiens, UniProt P46098, R87A); assay: two-electrode voltage clamp, R92A mutant receptor in Xenopus oocytes
T3 construct: host or cells: Xenopus laevis oocytes injected with in vitro transcribed mRNA
T3 sequence (P46098 24-478 R87A): T1 sequence (P46098 24-478 L151A) with R64A, A128L
Procedure: as §1, §2, §3

`CN[C@@H]1Cc2c[nH]c3cccc(c23)[C@H]1/C=C(\C)CO` [chanoclavine] was tested, and the inhibition at 100 µM [1] was 46.1 ± 6.5%, the inhibition at 100 µM [2] was 67.2 ± 9.9% and the inhibition at 100 µM [3] was 95.45 ± 0.3%.

Reference: article PMC7956620 (Molecules, 2021)
